Laboratory results as given in the supplement of paper PMC5908809.

What was measured:
IMC-1 (IL-2 20 ng/mL) [1] = experiment: drug sensitivity score (DSS) (DSS units); higher = more sensitive; extreme values may be limits of the assay; conditions: 72 h
SNK-6 (IL-2 2.5 ng/mL) [2] = experiment: as above; conditions: 72 h
KHYG-1 (IL-2 2.5 ng/mL) [3] = experiment: as above; conditions: 72 h
[4] = tested on: normal primary NK cells, pool 1 (3 donors) (IL-2 2.5 ng/mL); experiment: as above; conditions: 72 h
[5] = tested on: normal primary NK cells, pool 2 (3 donors) (IL-2 2.5 ng/mL); experiment: as above; conditions: 72 h
NKL (IL-2 2.5 ng/mL) [6] = experiment: as above; conditions: 72 h
KAI3 (IL-2 2.5 ng/mL) [7] = experiment: as above; conditions: 72 h
NK-YS (IL-2 2.5 ng/mL) [8] = experiment: as above; conditions: 72 h
DERL-7 (IL-2 2.5 ng/mL) [9] = experiment: as above; conditions: 72 h
[10] = tested on: normal primary NK cells, pool 3 (3 donors) (IL-2 2.5 ng/mL); experiment: as above; conditions: 72 h
YT (IL-2 2.5 ng/mL) [11] = experiment: as above; conditions: 72 h
NK-92 (IL-2 2.5 ng/mL) [12] = experiment: as above; conditions: 72 h
[13] = tested on: normal primary NK cells, pool 1 (3 donors), resting (IL-2 0 ng/mL); experiment: as above; conditions: 72 h
[14] = tested on: normal NK cells expanded with K562-aAPC; experiment: percent inhibition of viability; higher = more inhibition; conditions: 72 h, IL-2 2.5 ng/mL
Description: (§1)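 Drug sensitivity and resistance testing on K562-aAPC-expanded normal NK cells: 5 concentrations (10-fold steps over a 10,000-fold range), 72 h at 37 °C, viability by CellTiter-Glo normalised to DMSO and benzethonium chloride controls; DSS from the fitted curve.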

[15] = tested on: normal NK cells expanded with K562-aAPC; experiment: drug sensitivity score (DSS) (DSS units); higher = more sensitive; extreme values may be limits of the assay; conditions: 72 h; IL-2 2.5 ng/mL
Description: as §1

IMC-1 (IL-2 20 ng/mL) [16] = experiment: percent inhibition of viability; higher = more inhibition; conditions: 72 h
SNK-6 (IL-2 2.5 ng/mL) [17] = experiment: as above; conditions: 72 h
KHYG-1 (IL-2 2.5 ng/mL) [18] = experiment: as above; conditions: 72 h
[19] = tested on: normal primary NK cells, pool 1 (3 donors) (IL-2 2.5 ng/mL); experiment: as above; conditions: 72 h
[20] = tested on: normal primary NK cells, pool 2 (3 donors) (IL-2 2.5 ng/mL); experiment: as above; conditions: 72 h
NKL (IL-2 2.5 ng/mL) [21] = experiment: as above; conditions: 72 h
KAI3 (IL-2 2.5 ng/mL) [22] = experiment: as above; conditions: 72 h
NK-YS (IL-2 2.5 ng/mL) [23] = experiment: as above; conditions: 72 h
DERL-7 (IL-2 2.5 ng/mL) [24] = experiment: as above; conditions: 72 h
[25] = tested on: normal primary NK cells, pool 3 (3 donors) (IL-2 2.5 ng/mL); experiment: as above; conditions: 72 h
YT (IL-2 2.5 ng/mL) [26] = experiment: as above; conditions: 72 h
NK-92 (IL-2 2.5 ng/mL) [27] = experiment: as above; conditions: 72 h
[28] = tested on: normal primary NK cells, pool 1 (3 donors), resting (IL-2 0 ng/mL); experiment: as above; conditions: 72 h

O=C(O)CNC(=O)c1c(O)c2ccccc2n(Cc2ccccc2)c1=O [IOX-2] (max concentration tested 50000 nM)
Conditions	drug sensitivity score
DERL-7 (IL-2 2.5 ng/mL) [9]	0.77
IMC-1 (IL-2 20 ng/mL) [1]	2.14
KAI3 (IL-2 2.5 ng/mL) [7]	0.01
KHYG-1 (IL-2 2.5 ng/mL) [3]	0.37
NK-92 (IL-2 2.5 ng/mL) [12]	0.62
NK-YS (IL-2 2.5 ng/mL) [8]	0.91
NKL (IL-2 2.5 ng/mL) [6]	1.32
SNK-6 (IL-2 2.5 ng/mL) [2]	3.58
YT (IL-2 2.5 ng/mL) [11]	0.14
[4]	0
[5]	0
[10]	0.04
[13]	0
[15]	1.12

percent inhibition of viability [%]
Conditions	5 nM	50 nM	500 nM	5000 nM	50000 nM
DERL-7 (IL-2 2.5 ng/mL) [24]	-0.5	5.58	5.28	-4.63	25.8
IMC-1 (IL-2 20 ng/mL) [16]	1.88	0.96	5.1	6.24	28.9
KAI3 (IL-2 2.5 ng/mL) [22]	-3.52	1.05	2.47	-3.92	11.8
KHYG-1 (IL-2 2.5 ng/mL) [18]	1.01	1.23	3.87	2.07	14.3
NK-92 (IL-2 2.5 ng/mL) [27]	-8.34	-11.4	3.46	-6.86	24.2
NK-YS (IL-2 2.5 ng/mL) [23]	0.04	-3.4	4.58	-1.43	25.9
NKL (IL-2 2.5 ng/mL) [21]	-6.3	-1.48	-3.38	1.11	28.3
SNK-6 (IL-2 2.5 ng/mL) [17]	5.46	-1.31	-7.77	8.49	43.1
YT (IL-2 2.5 ng/mL) [26]	-1.09	-0.73	1.54	-7.45	15.8
[14]	-0.06	6.04	5.91	6.68	23.3
[19]	3.1	-5.28	-1.2	-0.54	6.1
[20]	-14.4	0.63	-2.21	-3.15	4.77
[25]	-6.36	0.19	2.86	-4.87	13.1
[28]	1.89	-6.6	3	-20.1	3.21

CN(C)Cc1ccc(S(=O)(=O)n2ccc(/C=C/C(=O)NO)c2)cc1 [Resminostat] (max concentration tested 10000 nM)
Conditions	drug sensitivity score
DERL-7 (IL-2 2.5 ng/mL) [9]	11.5
IMC-1 (IL-2 20 ng/mL) [1]	5.11
KAI3 (IL-2 2.5 ng/mL) [7]	17.1
KHYG-1 (IL-2 2.5 ng/mL) [3]	13.4
NK-92 (IL-2 2.5 ng/mL) [12]	14.1
NK-YS (IL-2 2.5 ng/mL) [8]	10.3
NKL (IL-2 2.5 ng/mL) [6]	18.2
SNK-6 (IL-2 2.5 ng/mL) [2]	12.3
YT (IL-2 2.5 ng/mL) [11]	9.67
[4]	13
[5]	10.2
[10]	8.68
[13]	16.1
[15]	10.6

percent inhibition of viability [%]
Conditions	1 nM	10 nM	100 nM	1000 nM	10000 nM
DERL-7 (IL-2 2.5 ng/mL) [24]	2.49	1.77	-10	47.9	101
IMC-1 (IL-2 20 ng/mL) [16]	-6.01	-4.89	-2.77	-7.01	101
KAI3 (IL-2 2.5 ng/mL) [22]	1.92	3.59	28.4	71.5	104
KHYG-1 (IL-2 2.5 ng/mL) [18]	-5.72	-0.43	1.19	68.5	106
NK-92 (IL-2 2.5 ng/mL) [27]	-4.22	-5.89	2.76	72.4	104
NK-YS (IL-2 2.5 ng/mL) [23]	-6.67	-3.77	2.32	34.2	103
NKL (IL-2 2.5 ng/mL) [21]	10.2	0.52	26.1	80.8	106
SNK-6 (IL-2 2.5 ng/mL) [17]	11.1	1.11	5.35	56.6	101
YT (IL-2 2.5 ng/mL) [26]	-1.93	-2.18	2.96	27.7	105
[14]	-4.58	-2.4	-0.88	36.9	101
[19]	2.24	11.9	12.7	57.5	98.9
[20]	-6.44	4.91	8.82	42	97.4
[25]	-1.68	4.21	3.8	20.1	98.5
[28]	-6.63	11.2	20.3	73.7	89.4

COc1ccc(-c2ccc3ncc4c(c3c2)n(-c2ccc(N3CCNCC3)c(C(F)(F)F)c2)c(=O)n4C)cn1 [NVP-BGT226] (max concentration tested 1000 nM)
Conditions	drug sensitivity score
DERL-7 (IL-2 2.5 ng/mL) [9]	24
IMC-1 (IL-2 20 ng/mL) [1]	11.9
KAI3 (IL-2 2.5 ng/mL) [7]	14.1
KHYG-1 (IL-2 2.5 ng/mL) [3]	14.8
NK-92 (IL-2 2.5 ng/mL) [12]	16.7
NK-YS (IL-2 2.5 ng/mL) [8]	17.5
NKL (IL-2 2.5 ng/mL) [6]	13.7
SNK-6 (IL-2 2.5 ng/mL) [2]	14.1
YT (IL-2 2.5 ng/mL) [11]	11.3
[4]	10.9
[5]	9.95
[10]	8.86
[13]	13.2
[15]	11.6

percent inhibition of viability [%]
Conditions	0.1 nM	1 nM	10 nM	100 nM	1000 nM
DERL-7 (IL-2 2.5 ng/mL) [24]	-4.47	7.95	55.7	89	99.7
IMC-1 (IL-2 20 ng/mL) [16]	-2.15	-4.82	-34.6	55.1	97.2
KAI3 (IL-2 2.5 ng/mL) [22]	-0.77	1.29	25.3	57.2	94.7
KHYG-1 (IL-2 2.5 ng/mL) [18]	-2.44	1.07	4.41	76.8	95.9
NK-92 (IL-2 2.5 ng/mL) [27]	-5	-4.68	24.6	74.2	96.2
NK-YS (IL-2 2.5 ng/mL) [23]	-4.92	-1.99	27.6	76.4	95.7
NKL (IL-2 2.5 ng/mL) [21]	-10.6	-18.4	35.3	51.1	93.4
SNK-6 (IL-2 2.5 ng/mL) [17]	8.89	4.85	13.6	64.3	98.2
YT (IL-2 2.5 ng/mL) [26]	-4.65	-0.4	10.2	53.6	74.2
[14]	-0.83	1.88	18.5	46.3	99.4
[19]	-4.63	-3.38	9.25	46.3	99
[20]	-6.87	0.35	13.2	39	99.7
[25]	-7.84	-7.37	7.07	21.4	98.8
[28]	5.35	-4.97	14.6	59.2	99
